Structures can show the parent of a compound that is named as a salt. Positions of bridges follow the written chain, without caps; N, C: chain ends. Non-standard residues stand in square brackets, D forms with d. Residues, ends and D or L forms follow the SMILES beside them. hArg = N=C(N)NCCCC[C@H](N)C(=O)O; Mpa = O=C(O)CCS
Legend:
platelets [1] = assay: Platelet activation quality control by p-selectin expression; type: cell-based, human; conditions: control blood upon activation by ADP
Method: To test for a thrombic event, blood was collected from 4 donors, the as blood alone or blood treated with hu5C8 alone (240 μg/mL), sCD40L (10 ng/ml) alone or with combined hu5C8/sCD40L was incubated for 20 minutes at room temperature. Each sample was further incubated for 5 minutes with fluorescent labels for platelets and fibrinogen. As a standard quality control, the control blood was tested for platelet activation using p-selection expression. We confirmed that platelets in control blood were not activated but upon activation by ADP, over 90% of platelet was positive for p-selectin.

fibrin = assay: Vessel-On-Chip blood perfusion, fibrin deposition by fluorescent fibrinogen imaging; type: cell-based, human
Method: (§1) A medical grade plastic reservoir was mounted on the chip, then 800 μl of the blood sample was pipetted into the reservoir. The chip was perfused with the blood by withdrawing it at a rate of 60 μl/minute using a syringe pump. The citrated blood was re-calcified 2 minutes after the beginning of each experiment by adding 100 μl/ml of a solution containing 100 mM calcium chloride and 75 mM magnesium chloride to the blood to permit calcium- and magnesium-dependent platelet function and coagulation.
When analyzing the formation of fibrin, 10 μg/ml of fluorescently labeled fibrinogen (Alexa 488, Invitrogen) was also added to the blood. While fluorescent fibrinogen was barely detected as a diffused fluorescence, fibrin deposition on inflamed cells and sparse clots was easily distinguished since fibrin formed filamentous structures produce a signal intensity that is clearly observed above a background threshold.
(§2) Chips perfused with blood samples were immediately imaged via fluorescence microscopy (Olympus IX83, 10X objective UPLFLN10X2, Circa-Flash4.0 CMOS Camera). Each chamber was inspected along its entire length and 5 images (about […]) were captured from the central area of the chamber. Image processing and quantification was performed with an automatic macro compiled in […] and numerical values corresponding to platelet coverage or fibrin florescence were collected and statistically analyzed in Graphpad Prism V7.
(§3) A percentage of signal coverage (or Platelet coverage) was computed from the binary image as the ratio of bright pixels to the total number of pixels in the image. Image processing and quantification was performed with an automatic macro compiled in ImageJ ire order to ensure unbiased signal measurements. Numerical values corresponding to platelet coverage or fibrin fluorescence (signal intensity) were collected and statistically analyzed in Graphpad Prism V7.

[2] = system: thrombin anti-thrombin complex (TAT); assay: Thrombin-anti thrombin (TAT) measurement via ELISA in chip effluent; type: cell-based, human; conditions: for TAT increment: Eptifibatide treatment
Method: Thrombin Anti-Thrombin (TAT) levels were analyzed in plasma from blood flowing out of the chip device by removing a sample from the outflow port. Thus TAT levels were evaluated in sample effluents collected from the outflow port of the chip using the Human TAT ELISA Kit (Siemens Healthineers) according to the user manual.
Blood sampled from the Vessel-On-Chip outflow port was analyzed for thrombin anti-thrombin complex (TAT), a factor released upon activation of the coagulation cascade and one of the biomarkers associated with thrombotic events occurring in patients affected with deep vein thrombosis (DVT) or SLE^45,46. TAT is an accepted clinical biomarker for procoagulation^48,49. An enzyme-linked immunosorbent assay (ELISA) was used to quantify the thrombin anti-thrombin complex (TAT).

platelets [3] = assay: Vessel-On-Chip blood perfusion, platelet coverage/aggregation by fluorescence imaging; type: cell-based, human
Method: At the start of each experiment, two vials of cells were thawed and expanded for 3 days in EGM-2. Cells were gently detached with 0.05% Trypsin (BD Biosciences, 2-4 minutes incubation at room temperature) and 8×10^6 cells/ml were introduced into the ECM-coated microchannels. After incubating for 30 minutes at 37° C., cell attachment to the bottom surface of the chamber was assessed by microscopy. Then, a second flask of HUVECs was trypsinized and used to seed the upper surface of the microfluidic chamber by introducing the cell suspension, inverting the chip, and incubating at 37° C. for 30 minutes. Each microfluidic chamber was gently flushed with EGM-2 twice in order to remove unbound cells, then chips were incubated overnight at 37° C. The next day, chips were connected to a syringe pump (Chemyx Fusion 200) and perfused with EGM-2 for 3 days (30 μL/hr) to provide continuous supply of fresh media. On day 3, medium was switched to EGM-2 with low serum (1% FBS, no VEGF) to promote cell synchronization overnight. On day 4, chips were used for blood perfusion experiments.
Citrated human blood (Research Blood Components, Cambridge, Mass.) was used within 4 hours of a blood draw in order to minimize pre-analytical effects on platelet function. Before every experiment, each one of the endothelialized channels (i.e. microchannels having an endothelial cell layer) was inspected via light microscopy. Samples showing any sign of discontinuity in the endothelium were discarded.
Platelets were labeled with human CD41-PE antibody (10 μL/ml, Invitrogen) directly added to the blood and incubated at room temperature for 5 minutes.
as §1, §2, §3

re-calcified blood = assay: On-chip anticoagulation of outflowing blood through the anticoagulant port; set-up: species or system human; conditions: sodium citrate through the anticoagulant port vs chips without anticoagulant port
Source text: In one embodiment, the surface area of the vascular compartment of a microfluidic chip used herein is greater in comparison to the original lung-on-a-chip design because the original size was too small for optimal blood component interaction with endothelium. As described herein, a 1 mm wide and 200 μm tall chamber provided an increase in size of the vascular surface area exposed to laminar flow, as compared to an exemplary lung-on-chip. An anticoagulant port, referred to by several names, including but not limited to EDTA input, citrate input, etc., was added near the outflow port of the vascular chamber. Thus two ports (anticoagulant port and vascular outflow i.e. outflow) were linked through a microfluidic channel (dimension of 250 um wide by 100 um height) to allow for perfusion of anticoagulant solution during the experiment. In some embodiments, modifications were made in the […] dimension. The outlet of the chip was connected to a pulling syringe pump with a system of tubing and connectors made of medical grade silicon that excludes any metal components or potential causes of platelet activation. […]

ICAM1 = ICAM1 immunostaining of endothelium on chip; type: cell-based, human; conditions: TNF-α stimulated endothelium compared to the control
Method: In some experiment endothelial cells were stimulate with 50 ng/ml of TNF (Sigma) for 6 hours in order to induce vascular inflammation before blood perfusion.

platelets [4] = assay: Hu5C8 mediated thrombosis on-chip, FcγRIIa dependence (platelet coverage, fibrin deposition, TAT); type: cell-based, human
Source text: Recent studies conducted on humanized mice expressing the human Fcγ receptors (FCGR2A) have shown that this receptor plays a role in thrombosis leading to the IC-mediated toxicity^12,16,21. […] In order to investigate if the IC5c8-induced thrombosis that we observed in our vessel-on-chip system also relies on an Fc-mediated mechanism, we used two different tool molecules: IgG2σ and IV.3 (FIG. 25A). The IgG2σ variant of hu5C8 has an engineered Fc region^48 that eliminates affinity for the FcγRIIa, while the monoclonal antibody IV.3 is a blocking antibody binding to FcγRIIa. […]
Some of the blood samples were treated with IV.3 (1 μg/ml) for 10 minutes to block the FcγRIIa, and then incubated for 20 more minutes with IC5c8. […] We tested 15 donors and all the tested conditions described above were tested in duplicates and analyzed as percentage of platelet coverage based on fluorescence microscopic imaging (FIG. 25B). […]
Blood from several human donors were aliquoted into groups for the following treatments: controls (PBS), sCD40L, combined hu5C8/sCD40L, combined hu5C8 (IgG2σ)/sCD40L combined, and combined hu5C8/sCD40L/IV.3. Each condition was tested with a minimum of 3 donors to a maximum of 15 donors, and all conditions were tested in duplicates and analyzed for platelet coverage (FIG. 25B), fibrin deposition (FIG. 25C), or increased formation of TAT measured in the eluates (FIG. 25D). […]

[5] = Eptifibatide 2 ug/ml, endothelium inflamed with TNF-α, n=4
[6] = Eptifibatide 2 ug/ml, following treatment with sCollagen, n=4
[7] = Eptifibatide 2 ug/ml, samples treated with TNF-α, n=4
[8] = TNF-α 50 ng/ml 6 hours on endothelium, or sCollagen 10 μg/ml in blood, vs control blood
[9] = hu5C8 240 μg/mL, sCD40L 10 ng/ml, 4 donors, 60 μl/minute about 10 minutes, vs untreated blood

Nc1ncnc2c1ncn2[C@@H]1O[C@H](COP(=O)(O)OP(=O)(O)O)[C@@H](O)[C@H]1O [ADP]
platelet positive for p-selectin (platelets [1]): over 90%

N=C(N)NCCCC[C@@H]1NC(=O)CCSSC[C@@H](C(N)=O)NC(=O)[C@@H]2CCCN2C(=O)[C@H](Cc2c[nH]c3ccccc23)NC(=O)[C@H](CC(=O)O)NC(=O)CNC1=O [Eptifibatide] ([Mpa][hArg]GDWPC-NH2; disulfide 1-7)
fibrin clot formation (fibrin; [5]): significantly inhibited
inhibitory effect on fibrin clot formation (fibrin; [6]): comparatively modest
fibrin signal (image analysis) (fibrin; [7]): a significant amount of fibrin signal was still detectable
TAT increment ([2]; TNF-α-induced inflammation): did not inhibit
TAT increment ([2]; sCollagen treatment): entirely suppressed
platelet aggregation (platelets [3]; [5]): significantly inhibited
inhibitory effect on platelet aggregation (platelets [3]; [6]): comparatively modest
platelet adhesion (image analysis) (platelets [3]; [7]): completely inhibited

O=C(O)CC(O)(CC(=O)O)C(=O)O [sodium citrate]
state of blood collected from the effluent (re-calcified blood): soluble (not clotted) blood

TNF-α
fibrin signal intensity (fibrin; [8]): increased
levels of TAT ([2]; plasma from blood flowing out of the chip, FIG. 22B): significantly increased
areas of platelet coverage (platelets [3]; [8]): increased
expression of ICAM1 in the endothelium (ICAM1): increased

hu5C8 (IgG2σ): IgG2σ variant of hu5C8 with engineered Fc region that eliminates affinity for FcγRIIa
signs of thrombosis in any of the endpoints (platelets [4]; combined with sCD40L (IV.3: combined hu5C8/sCD40L/IV.3)): did not show signs of thrombosis
hu5C8-mediated thrombosis (platelets [4]; preformed IC, IV.3 1 μg/ml 10 minutes, 15 donors): suppressed

hu5C8: humanized monoclonal IgG1 antibody against CD40L (anti-CD154)
fibrin deposition on the endothelium (fibrin; [9]): no significant treatment-related effects
platelet aggregate formation on the endothelium (platelets [3]; [9]): no significant treatment-related effects

Reference: patent US10852311B2, “Additive channels” (Emulate Inc., priority 2016, dated 2020)
